We go through 13 compounds from patent US11013719B2, “Sunitinib formulations and methods for use thereof in treatment of glaucoma” (The Johns Hopkins University, priority 2014, dated 2021).

One data set deals with immunopanned RGCs. Briefly: Survival of immunopanned primary RGCs in culture. Conditions: for Neuroprotective (survival-promoting) activity on primary RGCs in culture: increasing doses, 72 hours in culture; for Toxicity in primary RGC culture: nanomolar doses. In kind it is cell-based, mice. How it is done:
All animal use was in accordance with ARVO Statement for the Use of Animals, and all the experimental procedures were performed in compliance with animal protocols approved by the IACUC at Johns Hopkins University. Retinas were isolated from postnatal 0-5 day mice and dissociated with papain. Microglia was immunodepleted with anti-CD11b conjugated Dynabeads. The suspension of retinal cells were immunopanned on plates pre-conjugated with anti-Thy1.2 antibody (Serotec, MCA028) and anti-mouse IgM at room temperature (RT). After washing, RGCs were released from the plate by a cell lifter, counted, and seeded at a density of 10,000 per well in 96-well plates in the media composed of Neurobasal, B27, N2 supplement, L-glutamine, and penicillin/streptomycin. […] Images were taken from portions of each well with Cellomics Kinetscan, and cell survival was quantified and calculated with the algorithms in Cellomics Neuroprofiling package. As indicated, RGC viability was alternatively measured by CellTiter-Glo luminescence (Promega).
For siRNA-based screening, the siRNAs from the Sigma Mission Mouse Kinome library were complexed with NeuroMag (Oz Biosciences) at a final concentration of 20 nM. […] Confirmatory siRNAs were obtained from both Dharmacon and Ambion. […] RGCs were cultured for 48 h, and cell viability was analyzed on a plate reader (ViewLux, Perkin Elmer) using the bioluminescent CellTiterGlo (Promega) assay. Concentration response curves were created using CurveFit (NIH NCATS).

A further data set concerns optic nerve axons. Briefly: Rat laser-induced ocular hypertension (glaucoma model). In kind it is in vivo, Wistar rats. Conditions: for Neuroprotection in the glaucoma model: intravitreal PLGA microspheres / slow release formulation. How it is done: (§1) 6-week old male Wistar rats were anesthetized with ketamine/xylazine. A partial periotomy was made to expose the sclera. The injection site was approximately 1 mm posterior to the ora serrata, and the injection glass pipet was angled towards the optic disc in order to avoid lens injury. 5 μL (10 μg) of PLGA microspheres were injected with a glass pipet and Hamilton syringe.
Intraocular pressure (IOP) was unilaterally elevated by laser treatment of the trabecular meshwork as previously described^7. Briefly, 6-week old Wistar male rats were anesthetized with ketamine/xylazine. On two consecutive weeks, 40-50 532 nm diode laser spots were applied to the prelimbal region (50 μm diameter, 600 mW power and 0.6 seconds duration). Under anesthesia, the IOP of laser-treated and fellow eyes was measured with TonoLab one and three days after laser treatment. Four weeks following laser treatment, rats were perfused with 4% paraformaldehyde in phosphate buffer. Optic nerves were isolated, postfixed with 1% osmium tetroxide, embedded in epoxy resin and stained with 1% toluidine blue. Images from 10 random and nonoverlapping fields were taken with 100× oil phase contrast objective. The area of entire optic nerve cross-sections were imaged with 10× magnification, and used with axon counts from the 10 field to derive axon counts per nerve. The laser treatment and acquisition of optic nerve images were performed in a masked fashion.

Data set [1] deals with RGCs. The experiment in a line: Whole-cell patch-clamp recordings from RGCs at two weeks in culture.
Excerpt: Recordings were made by using the whole-cell patch-clamp technique in both current- and voltage-clamp modes with an Axopatch 200B. Data were low-pass filtered at 1 kHz (Bessel) and sampled at 10 kHz. […] The recording pipette was filled with the following intracellular solution (in mM): 100 K-gluconate, 50 KCl, 20 HEPES, 10 EGTA, 5 MgCl2, 2 ATP, 0.1 GTP, pH adjusted to 7.33 with KOH. The cells were continuously perfused with (in mM): 140 NaCl, 5 KCl, 1 MgCl2, 2.5 CaCl2), 10 glucose, 10 HEPES, pH 7.4 with NaOH.
To determine whether the RGCs that are kept alive for extended periods with DLK siRNA or sunitinib treatment remain functional, patch-clamp recordings were performed at two weeks in culture.
A short description of data set [2]: Solubility of sunitinib in aqueous solution. The data set is classed as physicochemical.
The next data set deals with DLK. The experiment in a line: DLK signaling in immunopanned RGCs (Western blot of phospho-MKK7 and phospho-JNK). The conditions noted are these: same concentrations that increase RGC survival. The data set is classed as cell-based, mice. On the procedure:
Western blots were performed according to the standard protocol. The following antibodies were from Cell Signaling Technology: Phospho-JNK, Thr183/Tyr185 (4671); JNK (9258); Phospho-MKK7 (4171), and MKK7 (4172). Monoclonal anti-alpha-tubulin antibody (T6074) was purchased from Sigma. DLK rabbit polyclonal was provided by S. Hirai.
To assess sunitinib's effect on DLK signaling in RGCs, immunopanned cells were cultured in the presence of increasing amounts of sunitinib.

For data set [3], the system named is RGCs. Briefly: Rat optic nerve transection after intravitreal microspheres. In kind it is in vivo, Wistar rats. On the procedure: as §1
The optic nerve was exposed by a partial peritomy and intraorbital dissection of the extraocular muscles, and then transected with a 25-gauge needle. 4-Di-10-ASP were then applied to the proximal nerve stump. Care was taken to avoid vascular injury during the transection, and retinal perfusion was examined after nerve transection. Two weeks after transection, rats were sacrificed and enucleated. Retinas were flatmounted, imaged with confocal microscopy and the number of 4-Di-10-ASP-labeled cells with RGC morphology was quantified. Imaging and quantification of RGC survival were performed in a masked fashion.

In a further data set the test system is kinases. Conditions: at neuroprotective concentrations; cited from earlier work.

On to `O=C(c1ccc(/C=C/c2n[nH]c3ccccc23)cc1)N1CCNCC1` [KW-2449], for which the “Neuroprotective (survival-promoting) activity on primary RGCs in culture” value (shortened to “Neuroprotective”) in the data set with immunopanned RGCs is “promoted the survival of primary RGCs in culture”.
Consider `CCN(CC)CCNC(=O)c1c(C)[nH]c(/C=C2\C(=O)Nc3ccc(C(=O)N(C)C)cc32)c1C` [SR8165], for which the “Neuroprotection in the glaucoma model” value in the data set on optic nerve axons is given as “conferred similar neuroprotection”. For the same compound, in the data set with immunopanned RGCs, the DLK toxicity entry is listed as “reduced DLK toxicity” and the “Neuroprotective” value is listed as “greater efficacy in vitro”.
`CN(C)S(=O)(=O)c1ccc2c(c1)/C(=C/c1cc3c([nH]1)CCCC3)C(=O)N2` [SU6656]: in the data set on immunopanned RGCs, the “Neuroprotective” value was “neuroprotective”.
Regarding `CCN(CC)CCNC(=O)c1c(C)[nH]c(/C=C2\C(=O)Nc3ccc(F)cc32)c1C` [Sunitinib], in the data set on optic nerve axons (intravitreal drug-eluting microspheres, one month, p<0.05), the “Reduction of optic nerve axon loss” value is given as 40%. For the same compound, in the data set on RGCs [1], the “Functionality of RGCs kept alive for extended periods” value is “conducted action potentials in response to depolarizing current and were responsive to exogenously applied glutamate”. In data set [2], the “Solubility in aqueous solution” value is given as “pH dependent”. Also, in the data set on DLK, the “Phosphorylation of targets downstream of DLK, including MKK7 and JNK” value is on record as “decrease in the phosphorylation”. The “Neuroprotective” value in the data set with immunopanned RGCs is given as “dose-dependent increase in the viability of primary RGCs”. In addition, the “Increase in surviving RGCs compared to control animals” value with RGCs [3] (intravitreal PLGA microspheres 7 days before transection, two weeks post-transection) was 3-4 fold. The “Number of kinases inhibited” value in the data set with kinases is reported as around 200 kinases.
Consider `COc1cc(N2CCC(N3CCN(C)CC3)CC2)ccc1Nc1ncc(Cl)c(Nc2ccccc2S(=O)(=O)C(C)C)n1` [TAE-684], for which the “Toxicity in primary RGC culture” value in the data set on immunopanned RGCs is recorded as “limited by toxicity at nanomolar doses”.
As for `Cc1cc(Nc2cc(N3CCN(C)CC3)nc(Sc3ccc(NC(=O)C4CC4)cc3)n2)[nH]n1` [Tozasertib, tozasertib], the “Neuroprotection in the glaucoma model” value in the data set on optic nerve axons is “protected RGCs”. In addition, the “Neuroprotective” value with immunopanned RGCs is given as “promoted the survival of primary RGCs in culture”. Besides, in the data set with RGCs [3] (intravitreal slow release formulation), the “Protection of RGCs in the optic nerve transection model” value was “protected RGCs”.
On to `C[C@@H](Oc1cc(-c2cnn(C3CCNCC3)c2)cnc1N)c1c(Cl)ccc(F)c1Cl` [crizotinib], for which the “Neuroprotective” value in the data set on immunopanned RGCs is on record as “promoted the survival of primary RGCs in culture”.
On to `COc1cc2c(Oc3ccc(NC(=O)C4(C(=O)Nc5ccc(F)cc5)CC4)cc3F)ccnc2cc1OCCCN1CCOCC1` [foretinib], for which, in the data set on immunopanned RGCs, the “Neuroprotective” value is on record as “promoted the survival of primary RGCs in culture”.
Still for that read-out and setting: next, `Cc1ccc(NC(=O)c2ccc(CN3CCN(C)CC3)cc2)cc1Nc1nccc(-c2cccnc2)n1` [imatinib]: “lack neuroprotective activity”.
In the case of `CCOc1cc2ncc(C#N)c(Nc3ccc(OCc4ccccn4)c(Cl)c3)c2cc1NC(=O)/C=C/CN(C)C` [neratinib], in the data set on immunopanned RGCs, the “Toxicity in primary RGC culture” value was “limited by toxicity at nanomolar doses”.
Regarding `CNC(=O)c1cc(Oc2ccc(NC(=O)Nc3ccc(Cl)c(C(F)(F)F)c3)cc2)ccn1` [sorafenib], in the data set on immunopanned RGCs, the “Neuroprotective” value is “lack neuroprotective activity”.
Consider `Clc1ccc(Nc2nnc(Cc3ccncc3)c3ccccc23)cc1` [vatalanib], for which the “Neuroprotective” value in the data set on immunopanned RGCs is recorded as “lack neuroprotective activity”.
On the same count and under the same terms, next, lestautinib: “promoted the survival of primary RGCs in culture”.
